Results taken from patent US20240208953A1, “"Cyclopenta[c]pyrrol Negative Allosteric Modulators of NR2B"” (Novartis AG, priority 2021, published 2024).

Key:
NR2B = NR2B (Rattus norvegicus (Rat), UniProt Q00960); test: NR2B rat cortical neuron calcium influx assay; type: cell-based; conditions: rat cortical neurons, glutamate and glycine stimulated calcium influx
Text: Example 1: NR2B Rat Cortical Neuron Calcium Influx Assay Protocol
Embryonic day 18 timed pregnant Sprague Dawley rats were euthanized according to Institutional Animal Care and Use Committee (IACUC) protocol. After cutting medially through the skin and exposing the uterus and embryos, fetuses were removed and placed in cold Hibernate medium. Each embryo's brain was extracted and cerebral cortices were isolated by removing the midbrain and meninges. The dissected cortices were then dissociated into the neurons using papain dissociation system (Worthington Biochemical Corporation) according the manufacturer's protocol.
Dissociated neurons were counted and plated into 384-well poly-D-lysine coated plates (Corning® BioCoat™) at a density of 20,000 cells/well in 30 μL of Neurobasal/B27 complete medium. Neurons were cultured at 37° C. for 2 days. On the assay day, medium was removed and cells were incubated with 20 μL/well of calcium dye (Calcium 6 Assay Kit, Molecular Devices) suspended in HBSS with 1.8 mM Ca^2+ (Ca-HBSS) according to the manufacturer's instruction.
Compounds of interest from 10 mM stock were serially diluted into 3× of desired concentrations in 1.8 mM Ca-HBSS, and 10 μL were added to the wells. Compound and the neurons were incubated at 37° C. for 2 hours in the dark.
On FDSS7000EX (Hamamatsu Photonics), a fluorescence measuring instrument, 10 μL of 4× ligand solution containing glutamate and glycine made in 1.8 mM Ca^2+-HBSS were added to each well. The fluorescent signals were collected before and after the addition of ligands for a total of 2 minutes. The data were converted to a ratio of the peak fluorescence to the fluorescence at the beginning of the measurement.
Each data point was measured in duplicates. Dose response curves were used to identify IC50 and maximal inhibition values. IC50 represents the concentration in μM of compound at which there is a half-maximal compound effect. Maximal inhibition of a compound is expressed as a percent of the highest inhibition of activity over a no compound control.

P-glycoprotein (P-gp) = P-glycoprotein (P-gp) (Homo sapiens (Human), UniProt P08183); test: MDCK-MDR1 permeability / efflux assay; type: in vitro ADME; conditions: dog, MDCK-MDR1, pH 7.4, efflux ratio, read-out: MDCK-MDR1 ER
Experimental: Example 4. Experimental Measurement of Efflux with MDCK-MDR1 Protocol
Cell Culture. MDCK-MDR1 cells were cultured at 37° C. under a 5% CO2 atmosphere, at 95% relative humidity in DMEM containing 10% FBS, penicillin-streptomycin (100 μg/mL), and 2 mM Ala-Gln. Cells were passaged every 3-4 days. For assay purposes, cells were seeded at a density of approximately 265,000 cells/cm^2 of a 96-well Transwell plate (Corning Life Sciences, Acton, MA) and cultured in the same media noted above for a period of 4 days.
Assay. The determination of the apparent permeability (Papp) was performed in both the A→B (apical to basal) and B→A (basal to apical) directions where each compound was assayed in triplicate. The zwitterion bestatin, a poorly permeably compound, was used as marker of monolayer integrity. To initiate the assay, media was aspirated, and the cells and basal chambers were washed three times with Hank's Balanced Salt Solution (HBSS) containing 10 mM HEPES (pH 7.4). Compound test solutions were prepared in triplicate in HBSS containing 10 mM HEPES (pH 7.4) and 0.02% bovine serum albumin (BSA) to a final concentration of 10 μM and centrifuged for 2 min at 4000×g, then applied to the donor compartment at time zero. Additionally, at time zero, a 37° C. solution without test articles (HBSS+10 mM HEPES (pH 7.4) plus 0.02% BSA) was added to the receiver chamber of the Transwell plate. A time zero sample of the donor solution was also sampled for further analysis. The assay was conducted for a period of 120 min at 37° C. without shaking. At the time of assay termination, samples were taken from each donor compartment, and each acceptor compartment of the Transwell plate. To each of the 0 and 120 min samples was added an internal standard solution containing glyburide in water:acetonitrile, 50:50 (v:v). Concentration curves were prepared using a Labcyte Echo in the same matrix noted above. Samples and concentration curve samples were centrifuged for 10 min at 4000×g and subsequently analyzed by mass spectroscopy.
Mass Spectroscopy. Assay samples were loaded onto a RapidFire C4 cartridge by means of a RapidFire autosampler (Agilent, Santa Clara, CA). […] Mass spectroscopy was performed using an AB Sciex AP15500 (Sciex, Frammingham, MA) equipped with a turbo ion spray source. The analyte concentration was calculated from the chromatographic peak area ratio of analyte to internal standard (glibenclamide, m/z 494→169), using Multiquant software V3.0 (Sciex, Framingham, MA).
Calculations. Papp values were determined as
Percent recovery values were determined as:
where VA is the volume of the acceptor (mL), S is the surface area of the membrane, D0 is the donor solution concentration at t=0, D120 is the donor solution concentration at t=120, A120 is the acceptor solution concentration at t=120, and t=time (seconds).
The suitability of a compound for oral dosing and/or for use as a CNS therapeutic is usually conducted by MDCK-MDR1 permeability assay to investigate its drug efflux potential mediated by P-glycoprotein (P-gp). MDCK-MDR1 permeability has been used as a predictor of blood brain barrier permeability in terms of efflux ratio (ER).

Sequence of NR2B (Q00960 27-1482, other chains not shown): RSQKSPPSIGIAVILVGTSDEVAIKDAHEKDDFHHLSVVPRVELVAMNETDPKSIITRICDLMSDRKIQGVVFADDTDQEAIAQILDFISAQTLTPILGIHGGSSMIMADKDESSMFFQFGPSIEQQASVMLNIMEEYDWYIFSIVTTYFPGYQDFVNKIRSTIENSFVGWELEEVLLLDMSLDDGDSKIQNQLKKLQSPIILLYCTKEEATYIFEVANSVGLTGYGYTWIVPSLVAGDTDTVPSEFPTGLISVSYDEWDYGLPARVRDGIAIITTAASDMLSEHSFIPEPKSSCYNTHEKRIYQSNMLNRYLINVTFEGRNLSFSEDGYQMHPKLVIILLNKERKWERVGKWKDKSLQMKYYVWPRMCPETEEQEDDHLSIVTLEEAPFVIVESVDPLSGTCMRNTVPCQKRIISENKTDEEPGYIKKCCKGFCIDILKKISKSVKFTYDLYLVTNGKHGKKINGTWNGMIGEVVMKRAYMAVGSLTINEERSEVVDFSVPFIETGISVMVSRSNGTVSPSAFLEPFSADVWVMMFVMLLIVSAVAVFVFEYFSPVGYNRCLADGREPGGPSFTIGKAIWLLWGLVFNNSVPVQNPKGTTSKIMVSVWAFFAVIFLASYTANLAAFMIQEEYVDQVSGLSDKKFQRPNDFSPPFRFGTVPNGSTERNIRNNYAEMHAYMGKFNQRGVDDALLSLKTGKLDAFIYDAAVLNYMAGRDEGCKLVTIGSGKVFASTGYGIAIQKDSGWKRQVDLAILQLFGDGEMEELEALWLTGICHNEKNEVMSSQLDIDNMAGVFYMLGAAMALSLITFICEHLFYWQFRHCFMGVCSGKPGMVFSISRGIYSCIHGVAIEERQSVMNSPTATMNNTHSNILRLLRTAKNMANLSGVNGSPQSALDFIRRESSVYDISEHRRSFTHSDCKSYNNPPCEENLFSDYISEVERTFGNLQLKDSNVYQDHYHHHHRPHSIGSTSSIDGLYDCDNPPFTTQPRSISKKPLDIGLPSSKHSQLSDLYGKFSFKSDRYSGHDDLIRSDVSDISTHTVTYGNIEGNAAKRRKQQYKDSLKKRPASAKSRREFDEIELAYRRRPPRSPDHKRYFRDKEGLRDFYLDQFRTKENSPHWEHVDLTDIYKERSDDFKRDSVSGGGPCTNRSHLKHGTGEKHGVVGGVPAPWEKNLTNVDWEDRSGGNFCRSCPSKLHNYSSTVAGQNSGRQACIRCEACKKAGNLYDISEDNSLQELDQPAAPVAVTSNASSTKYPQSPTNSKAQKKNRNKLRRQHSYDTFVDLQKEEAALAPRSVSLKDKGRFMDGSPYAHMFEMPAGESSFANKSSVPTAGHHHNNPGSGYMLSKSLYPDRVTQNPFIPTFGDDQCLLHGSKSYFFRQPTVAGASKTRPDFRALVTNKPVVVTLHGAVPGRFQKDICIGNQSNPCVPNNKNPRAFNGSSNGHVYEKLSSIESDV
Sequence of P-glycoprotein (P-gp) (P08183 whole entry): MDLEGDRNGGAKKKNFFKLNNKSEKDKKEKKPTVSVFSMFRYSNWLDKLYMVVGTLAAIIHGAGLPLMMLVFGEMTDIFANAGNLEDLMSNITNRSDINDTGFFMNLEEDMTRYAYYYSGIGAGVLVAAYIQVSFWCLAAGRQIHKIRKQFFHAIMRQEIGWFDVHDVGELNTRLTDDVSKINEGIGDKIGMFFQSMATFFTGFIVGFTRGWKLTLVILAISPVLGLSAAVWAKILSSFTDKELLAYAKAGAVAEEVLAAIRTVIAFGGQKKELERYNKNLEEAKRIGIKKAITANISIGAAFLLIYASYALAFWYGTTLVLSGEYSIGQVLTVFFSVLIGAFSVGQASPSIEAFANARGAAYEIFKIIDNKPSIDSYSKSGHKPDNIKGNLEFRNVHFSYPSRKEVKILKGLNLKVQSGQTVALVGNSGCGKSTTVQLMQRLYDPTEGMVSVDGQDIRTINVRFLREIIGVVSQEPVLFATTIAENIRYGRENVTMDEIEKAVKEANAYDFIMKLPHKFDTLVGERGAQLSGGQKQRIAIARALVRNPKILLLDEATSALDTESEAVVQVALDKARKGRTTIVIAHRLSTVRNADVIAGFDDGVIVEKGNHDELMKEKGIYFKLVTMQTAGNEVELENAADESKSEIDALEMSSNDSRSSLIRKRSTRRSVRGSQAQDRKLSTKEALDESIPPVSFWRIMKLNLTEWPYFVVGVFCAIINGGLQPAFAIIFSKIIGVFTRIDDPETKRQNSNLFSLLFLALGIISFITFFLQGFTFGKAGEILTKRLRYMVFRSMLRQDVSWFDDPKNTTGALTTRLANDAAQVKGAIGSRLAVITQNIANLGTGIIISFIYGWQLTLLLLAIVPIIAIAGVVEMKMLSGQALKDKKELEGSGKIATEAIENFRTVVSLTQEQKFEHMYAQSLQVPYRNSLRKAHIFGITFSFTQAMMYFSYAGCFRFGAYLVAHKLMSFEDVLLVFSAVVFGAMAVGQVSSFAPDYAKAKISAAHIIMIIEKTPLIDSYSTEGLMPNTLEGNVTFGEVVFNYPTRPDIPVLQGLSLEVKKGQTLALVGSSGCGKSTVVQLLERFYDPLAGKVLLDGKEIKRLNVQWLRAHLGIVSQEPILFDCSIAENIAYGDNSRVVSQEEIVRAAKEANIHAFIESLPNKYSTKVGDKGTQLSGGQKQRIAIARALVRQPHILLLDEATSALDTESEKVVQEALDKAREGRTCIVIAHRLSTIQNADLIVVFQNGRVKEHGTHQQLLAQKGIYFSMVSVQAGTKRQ

## O=C1Nc2ccc([C@H](O)CN3C[C@H]4C[C@H](Oc5ccccc5)C[C@@]4(O)C3)cc2CO1 (single isomer, unassigned) [Example 28B]
NR2B
  IC50: 1.7 nM
P-glycoprotein (P-gp)
  efflux ratio at 120 min, 10 μM: 3.18

## O=C1Nc2c(F)cc([C@@H](O)CN3C[C@H]4C[C@H](Oc5ccccc5)C[C@@]4(O)C3)cc2C[C@@H]1F [Example 19]
NR2B
  IC50: 8.7 nM

## O=C1COCc2cc([C@H](O)CN3C[C@H]4C[C@H](Oc5ccccc5)C[C@@]4(O)C3)cc(F)c2N1 (single isomer, unassigned) [Example 32B]
NR2B
  IC50: 600 nM

## O=C1Nc2c(cc([C@H](O)CN3C[C@H]4C[C@H](Oc5ccccc5)C[C@@]4(O)C3)c(F)c2F)CO1 (single isomer, unassigned) [Example 38B]
NR2B
  IC50: 7.8 nM

## O=C1CCc2cc([C@@H](O)CN3C[C@H]4C[C@H](Oc5ccc(F)cc5)C[C@@]4(O)C3)ccc2N1 (single isomer, unassigned) [Example 22A]
NR2B
  IC50: 23 nM

## O=C1CCCc2cc([C@H](O)CN3C[C@H]4C[C@H](Oc5ccccc5)C[C@@]4(O)C3)cc(F)c2N1 (single isomer, unassigned) [Example 30B]
NR2B
  IC50: 17 nM

## O=c1[nH]c2ccc([C@H](O)CN3C[C@H]4C[C@H](Oc5ccccc5F)C[C@@]4(O)C3)cc2o1 (single isomer, unassigned) [Example 40B]
NR2B
  IC50: 28 nM

## O=C1CCc2cc([C@H](O)CN3C[C@@H]4C[C@@H](Oc5ccc(F)cc5F)C[C@]4(O)C3)ccc2N1 (single isomer, unassigned) [Example 25D]
NR2B
  IC50: 0.22 nM

## O=C1Cc2cc([C@H](O)CN3C[C@H]4C[C@H](Oc5ccccc5)[C@H](O)[C@@]4(O)C3)ccc2N1 [Example 3D, 5-((S)-2-((3aS,4S,5S,6aR)-3a,4-dihydroxy-5-phenoxyhexahydrocyclopenta[c]pyrrol-2(1H)-yl)-1-hydroxyethyl)indolin-2-one]
NR2B
  IC50: 75 nM

## O=C1CCc2cc([C@H](O)CN3C[C@H]4C[C@H](Oc5ccccc5F)C[C@@]4(O)C3)ccc2N1 [Example 5B, 6-((S)-2-((3aS,5S,6aR)-5-(2-fluorophenoxy)-3a-hydroxyhexahydrocyclopenta[c]pyrrol-2(1H)-yl)-1-hydroxyethyl)-3,4-dihydroquinolin-2(1H)-one]
NR2B
  IC50: 130 nM

## O=C1CCc2cc([C@@H](O)CN3C[C@H]4C[C@H](Oc5c(F)cccc5F)C[C@@]4(O)C3)ccc2N1 (single isomer, unassigned) [Example 27A]
NR2B
  IC50: > 1100 nM

## O=C1CCc2cc([C@H](O)CN3C[C@H]4C[C@H](Oc5c(F)cccc5F)C[C@@]4(O)C3)ccc2N1 (single isomer, unassigned) [Example 27B]
NR2B
  IC50: 290 nM

## O=c1[nH]c2c(F)cc([C@@H](O)CN3C[C@H]4C[C@H](Oc5ccccc5)C[C@@]4(O)C3)cc2cc1F (single isomer, unassigned) [Example 20A]
NR2B
  IC50: 2 nM

## O=C1CCc2cc([C@H](O)CN3C[C@H]4C[C@H](Oc5ccc(F)cc5F)C[C@@]4(O)C3)ccc2N1 (single isomer, unassigned) [Example 25B]
NR2B
  IC50: 14 nM

## O=C1CCc2cc([C@@H](O)CN3C[C@H]4C[C@H](Oc5cccc(F)c5)C[C@@]4(O)C3)ccc2N1 (single isomer, unassigned) [Example 23A]
NR2B
  IC50: 33 nM

## O=C1CCc2cc([C@@H](O)CN3C[C@H]4C[C@H](Oc5ccc(F)cc5F)C[C@@]4(O)C3)ccc2N1 (single isomer, unassigned) [Example 25A]
NR2B
  IC50: > 1100 nM

## O=C1CCc2cc([C@H](O)CN3C[C@H]4C[C@H](Oc5ccccc5F)C[C@@]4(O)C3)cc(F)c2N1 (single isomer, unassigned) [Example 6B]
NR2B
  IC50: 1060 nM

## O=C1CCc2cc([C@H](O)CN3C[C@@H]4C[C@@H](Oc5ccc(F)cc5)C[C@]4(O)C3)ccc2N1 (single isomer, unassigned) [Example 22D]
NR2B
  IC50: 1.6 nM

## O=C1CCc2cc([C@H](O)CN3C[C@H]4C[C@H](Oc5cccc(F)c5)C[C@@]4(O)C3)ccc2N1 (single isomer, unassigned) [Example 23B]
NR2B
  IC50: 280 nM

## CC1(C)Cc2cc([C@H](O)CN3C[C@H]4C[C@H](Oc5ccccc5)C[C@@]4(O)C3)ccc2NC1=O (single isomer, unassigned) [Example 11B]
NR2B
  IC50: 2.6 nM

## O=C1CCc2cc([C@H](O)CN3C[C@H]4C[C@H](Oc5ccc(F)cc5)C[C@@]4(O)C3)ccc2N1 (single isomer, unassigned) [Example 22B]
NR2B
  IC50: 420 nM

## O=C1CCc2cc([C@@H](O)CN3C[C@H]4C[C@H](Oc5cccc(F)c5F)C[C@@]4(O)C3)ccc2N1 (single isomer, unassigned) [Example 24A]
NR2B
  IC50: 16 nM

## O=C1Nc2ccc([C@H](O)CN3C[C@H]4C[C@H](Oc5ccccc5F)C[C@@]4(O)C3)cc2CCO1 (single isomer, unassigned) [Example 12B]
NR2B
  IC50: 0.25 nM

## O=C1CCCc2cc([C@H](O)CN3C[C@H]4C[C@H](Oc5ccccc5F)C[C@@]4(O)C3)ccc2N1 (single isomer, unassigned) [Example 43B]
NR2B
  IC50: 1.2 nM

## O=C1CCc2cc([C@@H](O)CN3C[C@H]4C[C@H](Oc5cc(F)ccc5F)C[C@@]4(O)C3)ccc2N1 (single isomer, unassigned) [Example 26A]
NR2B
  IC50: 250 nM

## O=c1[nH]c2ccc([C@@H](O)CN3C[C@H]4C[C@H](Oc5ccccc5)C[C@@]4(O)C3)cc2o1 (single isomer, unassigned) [Example 39A]
NR2B
  IC50: 26 nM

## O=c1[nH]c2ccc([C@@H](O)CN3C[C@H]4C[C@H](Oc5ccccc5F)C[C@@]4(O)C3)cc2o1 (single isomer, unassigned) [Example 40A]
NR2B
  IC50: 6.9 nM

## O=C1Cc2cc([C@@H](O)CN3C[C@H]4C[C@H](Oc5ccccc5)[C@H](O)[C@@]4(O)C3)ccc2N1 [Example 3C, 5-((R)-2-((3aS,4S,5S,6aR)-3a,4-dihydroxy-5-phenoxyhexahydrocyclopenta[c]pyrrol-2(1H)-yl)-1-hydroxyethyl)indolin-2-one]
NR2B
  IC50: 400 nM

## O=C1CCc2cc([C@H](O)CN3C[C@H]4C[C@H](Oc5cccc(F)c5F)C[C@@]4(O)C3)ccc2N1 (single isomer, unassigned) [Example 24B]
NR2B
  IC50: 57 nM

## O=C1Nc2c(F)cc([C@H](O)CN3C[C@H]4C[C@H](Oc5ccccc5)C[C@@]4(O)C3)c(F)c2CO1 (single isomer, unassigned) [Example 37B]
NR2B
  IC50: 6.5 nM

## O=c1[nH]c2ccc([C@H](O)CN3C[C@H]4C[C@H](Oc5ccccc5)C[C@@]4(O)C3)cc2o1 (single isomer, unassigned) [Example 39B]
NR2B
  IC50: 86 nM

## O=C1CCc2cc([C@H](O)CN3C[C@H]4C[C@H](Oc5cc(F)ccc5F)C[C@@]4(O)C3)ccc2N1 (single isomer, unassigned) [Example 26B]
NR2B
  IC50: 470 nM
